{"source": "patent US10323266B2", "about": "“Antimicrobial susceptibility testing device, antimicrobial susceptibility testing kit, and antimicrobial susceptibility testing method” (Hitachi, Ltd., priority 2015, dated 2019)", "test_system": "Escherichia coli (ATCC25922 strain)", "assay": "antimicrobial susceptibility test by an ATP method (ATP luminescence), E. coli", "type": "cell-based", "settings": "for RLU value as compared with that at ampicillin 0 μg/mL: plateau after 2 hours", "excerpt": "In the Example, the amount of luminescence is expressed by the integration of the 60-sec photon count, and the unit is the amount of luminescence (a.u.). Since the amount of luminescence and the amount of ATP are in a proportional relationship, the increase in the amount of luminescence and the increase in the amount of ATP are to be expressed with the same implications.\nBenzalkonium chloride was used as an extraction liquid, and Lucifer HS set (Kikkoman) was used as a luminescence reagent.\nFirst, H. influenzae was cultured one night on a chocolate agar medium under a carbon dioxide gas atmosphere of 5 to 10%, and on the next day, the colony was suspended in a Mueller-Hinton (hereinafter referred to as MH) medium to produce a bacterial suspension that was prepared to 0.5 McFarland. Next, in a plate in which 50 μL each of an MH medium with the antibody of the two-fold concentration of the final concentration was previously dispensed, 50 μL each of a bacterial suspension diluted 500-fold with the MH medium was dispensed to provide an AST panel.\nThe first plate 21 and the second plate 22 were joined via the joint portion 23. The temperature of the ATP examination culture plate 12 was kept at 37° C. by the heater 11 and after a certain period of time, 10 μL of the bacterial culture solution of H. influenzae was dispensed from the culture vessel in the first plate 21 into the reaction vessel in the second plate 22 in which the gas atmosphere was previously prepared to 5 to 10% carbon dioxide. Subsequently, 10 μL of the extraction liquid was dispensed from the extraction liquid holding part 43 into the reaction vessel, and then 50 μL of the luminescence reagent was dispensed from the luminescence reagent holding part 46 into the reaction vessel.\nAfter dispensing the luminescence reagent, the amount of luminescence in the reaction vessel was detected by the optical detector 13. In the optical detector 13, photo-counting was performed for 1 minute, and the detected amount of luminescence RLU (relative light unit) was used as a measure of the amount of ATP.\nExample 2 was conducted in the same manner as in Example 1, except that Escherichia coli (ATCC25922 strain, hereinunder, E. coli) was used as bacterial cells, ampicillin was used as an antibody, and the gas atmosphere in the culture solution holding part 47 and the reaction vessel 44 of the ATP examination culture plate 21 was an air atmosphere. The antibody (ampicillin) concentration was 0, 2, 4, and 8 μg/mL. […] When the ampicillin concentration was 0 μg/mL, RLU increased in an exponential manner from the start of the culture until 4 hours, and thereafter ran at a constant value. […] On the other hand, when the ampicillin concentration was 4 μg/mL and 8 μg/mL, RLU increased from the start of the culture until 2 hours and thereafter ran at a constant value. The RLU value was as low as about 1/20 as compared with that at an ampicillin concentration of 0 μg/mL, and it can be seen that the growth of E. coli was suppressed by the action of ampicillin.", "data": [{"smiles": "CC1(C)S[C@@H]2[C@H](NC(=O)[C@H](N)c3ccccc3)C(=O)N2[C@H]1C(=O)O", "note": "[ampicillin]", "values": [{"measurement": "susceptibility determination of E. coli", "setting": "ampicillin 2 μg/mL", "result": "resistant"}, {"measurement": "RLU time course compared with ampicillin 0 μg/mL", "setting": "ampicillin 2 μg/mL, air atmosphere, FIG. 10, 0 μg/mL: exponential increase until 4 hours, then constant", "result": "a similar trend was shown"}, {"measurement": "susceptibility determination of E. coli", "setting": "ampicillin 4 μg/mL", "result": "has sensitivity"}, {"measurement": "RLU value as compared with that at ampicillin 0 μg/mL", "setting": "ampicillin 4 μg/mL, air atmosphere, FIG. 10", "result": "about 1/20"}, {"measurement": "susceptibility determination of E. coli", "setting": "ampicillin 8 μg/mL", "result": "has sensitivity"}, {"measurement": "RLU value as compared with that at ampicillin 0 μg/mL", "setting": "ampicillin 8 μg/mL, air atmosphere, FIG. 10", "result": "about 1/20"}, {"measurement": "concentration at which E. coli has sensitivity", "setting": "tested 0, 2, 4 and 8 μg/mL, ATP luminescence", "result": "≥ 4", "unit": "µg/mL"}]}]}
